Assay results published in patent publication US4595700A, “Thiol based collagenase inhibitors” (G. D. Searle & Co., priority 1985, dated 1986).
Where “and” joins values, the source holds several entries; their conditions need not be identical. Equal entries are not always repeated.

Target: T1, Human Rheumatoid Synovial collagenase (Homo sapiens, UniProt P03956)
T1 construct: from tissue; host or cells: rheumatoid synovium (tissue or synovial cell culture not distinguished)
T1 sequence (P03956 100-469): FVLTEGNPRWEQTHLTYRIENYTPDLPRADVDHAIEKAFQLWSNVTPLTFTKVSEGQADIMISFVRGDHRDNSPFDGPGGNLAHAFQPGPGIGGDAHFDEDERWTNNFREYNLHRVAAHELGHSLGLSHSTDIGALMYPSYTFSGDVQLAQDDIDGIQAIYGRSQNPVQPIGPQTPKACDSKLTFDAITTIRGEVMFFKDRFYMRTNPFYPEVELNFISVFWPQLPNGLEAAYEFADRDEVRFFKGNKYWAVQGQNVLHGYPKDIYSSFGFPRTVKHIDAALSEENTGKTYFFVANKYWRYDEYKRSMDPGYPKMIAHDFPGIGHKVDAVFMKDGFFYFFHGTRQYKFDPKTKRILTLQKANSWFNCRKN
Test: inhibition of collagenase (acetyl 14C collagen digestion, Cawston and Barrett)
Format: biochemical
Conditions: Table 2; 37° C., 16 hours, native acetyl 14C collagen, pH 7.6; read-out: IC50 (μM) Human Rheumatoid Synovial collagenase
Experimental: This was determined following the procedure of Cawston and Barrett, Anal. Biochem., 99, 340-345 (1979) whereby the 1 mM of the inhibitor being tested or dilutions thereof are incubated at 37° C. for 16 hours with native collagen and collagenase (buffered with Tris HCl--CaCl2; pH 7.6). The collagen is acetyl ^14 C collagen. The samples are centrifuged to sediment undigested collagen and an aliquot of the radiactive supernatant removed for assay on a scintillation counter as a measure of hydrolysis. The collagenase activity in the presence of 1 mM inhibitor, or a dilution thereof, is compared to activity in a control devoid of inhibitor and the results reported as that inhibitor concentration effecting 50% inhibition of the collagenase.

SMILES | IC50 [µM]
CNC(=O)[C@H](Cc1ccc(OC)cc1)NC(=O)C(CC(C)C)C(C)S (single isomer, unassigned) [Example 1 Isomer B1, N-[2-(1-Mercaptoethyl)-4-methylpentanoyl]-O-methyl-L-tyrosine N-Methylamide] | 0.22
CNC(=O)[C@H](Cc1ccc(OC)cc1)NC(=O)C(CC(C)C)C(C)S (single isomer, unassigned) [Example 1 Isomer B2, N-[2-(1-Mercaptoethyl)-4-methylpentanoyl]-O-methyl-L-tyrosine N-Methylamide] | 1.5
CNC(=O)[C@@H](NC(=O)C(CC(C)C)C(C)S)[C@@H](C)OCc1ccccc1 (single isomer, unassigned) [Example 6 Isomer A, N-[2-(1-Mercaptoethyl)-4-methylpentanoyl]-O-benzyl-L-threonine N-Methylamide] | 0.45
CCCCNC(=O)[C@H](C)NC(=O)C(CC(C)C)C(C)S (single isomer, unassigned) [Example 7 Isomer C, N-[2-(1-S-Mercaptoethyl)-4-methyl-pentanoyl]-L-alanine N-butylamide] | 1.2
CCCCCCC(C(=O)N[C@@H](Cc1ccc(OC)cc1)C(=O)NC)C(C)S (single isomer, unassigned) [Example 4 Isomer B, N-[2-(1-mercaptoethyl)octanoyl]-O-methyl-L-tyrosine N-methylamide] | 140
CNC(=O)[C@H](Cc1ccc(OC)cc1)NC(=O)C(CC(C)C)C(S)c1ccccc1 (single isomer, unassigned) [Example 2 Isomer A1, N-[2-(1-S-Mercaptobenzyl)-4-methylpentanoyl]-O-methyl-L-tyrosine-N-methylamide] | 0.27
CCCCC(C(=O)N[C@@H](Cc1ccc(OC)cc1)C(=O)NC)C(C)S (single isomer, unassigned) [Example 5 Isomer B, N-[2-(1-Mercaptoethyl)hexanoyl]-O-methyl-L-tyrosine N-methyl amide] | 1
CCCCNC(=O)[C@H](C)NC(=O)C(CC(C)C)C(C)S (single isomer, unassigned) [Example 7 Isomer B, N-[2-(1-S-Mercaptoethyl)-4-methyl-pentanoyl]-L-alanine N-butylamide] | 2
CNC(=O)[C@H](Cc1ccc(OC)cc1)NC(=O)C(CC(C)C)C(S)c1ccccc1 (single isomer, unassigned) [Example 2 Isomer B1, N-[2-(1-S-Mercaptobenzyl)-4-methylpentanoyl]-O-methyl-L-tyrosine-N-methylamide] | 3.9
CCCCC(C(=O)N[C@@H](Cc1ccc(OC)cc1)C(=O)NC)C(C)S (single isomer, unassigned) [Example 5 Isomer A, N-[2-(1-Mercaptoethyl)hexanoyl]-O-methyl-L-tyrosine N-methyl amide] | 0.2
CCCCCCC(C(=O)N[C@@H](Cc1ccc(OC)cc1)C(=O)NC)C(C)S (single isomer, unassigned) [Example 4 Isomer A, N-[2-(1-mercaptoethyl)octanoyl]-O-methyl-L-tyrosine N-methylamide] | 5
CNC(=O)[C@@H](NC(=O)C(CC(C)C)C(C)S)[C@@H](C)OCc1ccccc1 (single isomer, unassigned) [Example 6 Isomer B, N-[2-(1-Mercaptoethyl)-4-methylpentanoyl]-O-benzyl-L-threonine N-Methylamide] | 4.9
CNC(=O)[C@H](Cc1ccc(OC)cc1)NC(=O)C(CC(C)C)C(S)C(C)C (single isomer, unassigned) [Example 3 Isomer B, N-(2-(1-Mercapto-2-methylpropyl)-4-methylpentanoyl)-O-methyl-L-tyrosine N-Methyl amide] | 5
CNC(=O)[C@H](Cc1ccc(OC)cc1)NC(=O)C(CC(C)C)C(C)S (single isomer, unassigned) [Example 1 Isomer A1, N-[2-(1-Mercaptoethyl)-4-methylpentanoyl]-O-methyl-L-tyrosine N-Methylamide] | 19
CNC(=O)[C@H](Cc1ccc(OC)cc1)NC(=O)C(CC(C)C)C(S)c1ccccc1 (single isomer, unassigned) [Example 2 Isomer A2, N-[2-(1-S-Mercaptobenzyl)-4-methylpentanoyl]-O-methyl-L-tyrosine-N-methylamide] | 1.71
CNC(=O)[C@H](Cc1ccc(OC)cc1)NC(=O)C(CC(C)C)C(C)S (single isomer, unassigned) [Example 1 Isomer A2, N-[2-(1-Mercaptoethyl)-4-methylpentanoyl]-O-methyl-L-tyrosine N-Methylamide] | 13
CCCCNC(=O)[C@H](C)NC(=O)C(CC(C)C)C(C)S (single isomer, unassigned) [Example 7 Isomer A, N-[2-(1-S-Mercaptoethyl)-4-methyl-pentanoyl]-L-alanine N-butylamide] | 4.9
CNC(=O)[C@H](Cc1ccc(OC)cc1)NC(=O)C(CC(C)C)C(S)C(C)C (single isomer, unassigned) [Example 3 Isomer A, N-(2-(1-Mercapto-2-methylpropyl)-4-methylpentanoyl)-O-methyl-L-tyrosine N-Methyl amide] | 2
CNC(=O)[C@H](Cc1ccc(OC)cc1)NC(=O)C(CC(C)C)C(S)c1ccccc1 (single isomer, unassigned) [Example 2 Isomer B2, N-[2-(1-S-Mercaptobenzyl)-4-methylpentanoyl]-O-methyl-L-tyrosine-N-methylamide] | 12

Same assay, conditions: Table 3; all compounds S stereochemistry at c; 37° C., 16 hours, pH 7.6; read-out: IC50 against human rheumatoid sinovial collagenase

SMILES | IC50 [µM]
CNC(=O)[C@H](Cc1ccc(OC)cc1)NC(=O)C(CC(C)C)C(C)S (single isomer, unassigned) [Example 1 Isomer B1, N-[2-(1-Mercaptoethyl)-4-methylpentanoyl]-O-methyl-L-tyrosine N-Methylamide] | 0.22
CNC(=O)[C@H](Cc1ccc(OC)cc1)NC(=O)C(CS)CC(C)C (some centres unmarked) [reference compound] | 3.6
CNC(=O)[C@@H](NC(=O)C(CC(C)C)C(C)S)[C@@H](C)OCc1ccccc1 (single isomer, unassigned) [Example 6 Isomer A, N-[2-(1-Mercaptoethyl)-4-methylpentanoyl]-O-benzyl-L-threonine N-Methylamide] | 0.45
CCCCNC(=O)[C@H](C)NC(=O)C(CC(C)C)C(C)S (single isomer, unassigned) [Example 7 Isomer C, N-[2-(1-S-Mercaptoethyl)-4-methyl-pentanoyl]-L-alanine N-butylamide] | 1.2
CCCCNC(=O)[C@H](C)NC(=O)C(CS)CC(C)C (some centres unmarked) [reference compound] | 37
CNC(=O)[C@@H](NC(=O)C(CS)CC(C)C)C(C)OCc1ccccc1 (some centres unmarked) [reference compound] | 4.8

Same assay, conditions: Table 3 footnote 4; individual determinations; read-out: IC50, individual results (footnote 4: mean of two results)

SMILES | IC50
CCCCNC(=O)[C@H](C)NC(=O)C(CS)CC(C)C (some centres unmarked) [reference compound] | 25 µM and 44 µM
